Test results taken from patent EP0974354A1, “Artemisinin derivatives” (The Hong Kong University of Science & Technology, priority 1998, dated 2000).
≈ marks a conversion by molar mass, not a printed value. Where “and” joins values, the source holds several entries; their conditions need not be identical. Identical values can stand only once. Like-named read-outs stand apart in the source and are kept apart here.

Experiments:
[1] = test system: Plasmodium Falciparum W2 Strain (Chloroquine resistant); assay: In vitro screening against Plasmodium falciparum, radiolabelled hypoxanthine incorporation, W2 strain; assay type: cell-based; conditions: for IC50 / IC90: Plasmodium falciparum; for IC50: read-out: In vitro activity: IC50, W2 Strain (Chloroquine resistant); for IC90: read-out: In vitro activity: IC90, W2 Strain (Chloroquine resistant)
Experimental: (§1) Two parasite strains - W2 resistant to chloroquine, and D6 sensitive to chloroquine but resistant to mefloquine were used.
(§2) The assay relies on incorporation of radiolabelled hypoxanthine by the parasite and inhibition of incorporation is attributed to activity of known or candidate antimalarial drugs. For each assay, proven antimalarials such as chloroquine, mefloquine, quinine, artemisinin and pyrimethamine were used as controls. The incubation period was 66 hours, and the starting parasitemia was 0.2% with 1% hematocrit. The medium was an RPMI-1640 culture with no folate or p-aminobenzoic acid. […] If a compound was submitted with no prior knowledge of activity, it was dissolved directly in dimethyl sulphoxide (DMSO), and diluted 400 fold with complete culture medium. […] These dilutions were performed automatically by a Biomek 1000 Liquid Handling System in 96-well microtiter plates. The diluted drugs were then transferred to test plates, 200 µl of parasitized erythrocytes were added, and incubated at 37°C in a controlled environment of 5% CO2, 5% O2 and 90% N2. After 42 hours, 25 µl of ^3H-hypoxanthine was added, and the plates incubated for an additional 24 hours. After 66 hours, the plates were frozen at -70°C to lyse the red cells, and then thawed and harvested onto glass fiber filter mats in a 96-well harvester. The filter mats were then counted in a scintillation counter.
(§3) A prescreen format can be used wherein a 3-dilution assay may be used to determine activity at high medium or low concentrations. The concentrations were selected as 50,000, 500 and 50 ng ml^-1. These were performed in duplicate on a 96-well format plate with 14 test compounds and one known (standard) compound per plate. The system was automated with a Biomek diluter for mixing and diluting the drugs, and adding drugs and parasites to a test plate.
(§4) In the prescreen format, if the […] […] If the AF has a ">", then the IC value is greater than the prescreen dilution value; thus "AF>250" means that the IC value is greater than 250 ng ml^-1 and no further screening is carried out. In such cases, values of 0.00 are entered for IC values.

[2] = test system: Plasmodium Falciparum D6 Strain (Chloroquine sensitive); assay: In vitro screening against Plasmodium falciparum, radiolabelled hypoxanthine incorporation, D6 strain; assay type: cell-based; conditions: for IC50 / IC90: Plasmodium falciparum
Experimental: as §1, §2, §3, §4

[3] = test system: parasite of the genus Plasmodium; assay: Antimalarial activity, general statement in the description, test not specified; conditions: qualitative statement
[4] = W2 Strain (Chloroquine resistant), 66 hours incubation, Albumax medium
[5] = D6 Strain (Chloroquine sensitive), 66 hours incubation, Albumax medium
[6] = W2, 66 h, 66 hours incubation, Albumax medium
[7] = D6, 66 h, D6 Strain (Chloroquine sensitive), 66 hours incubation, Albumax medium, read-out: In vitro activity: IC50
[8] = D6, 66 h, D6 Strain (Chloroquine sensitive), 66 hours incubation, Albumax medium, read-out: In vitro activity: IC90

| Compound | In vitro activity: (IC10) [2, 5] | In vitro activity: IC50 [2, 5] [ng/mL] | In vitro activity: IC90 [2, 5] [ng/mL] | IC50 [1, 6] [ng/mL] | IC90 [1, 6] [ng/mL] | In vitro activity: IC50 ([1]; W2, 66 h) [ng/mL] | In vitro activity: IC90 ([1]; W2, 66 h) [ng/mL] | IC50 [2, 7] [ng/mL] | IC90 [2, 8] [ng/mL] | In vitro activity: (IC10) ([1]; W2, 66 h) [ng/mL] | further results |
| --- | --- | --- | --- | --- | --- | --- | --- | --- | --- | --- | --- |
| CC1CCC2C(C)C(OCc3ccc4ccccc4c3)OC3OC4(C)CCC1C32OO4 (single isomer, unassigned) [3(α-isomer), 10α-[(2'-naphthylmethyl)oxy]dihydroartemisinin] | 0.93 ng/mL | 1.24 | 1.67 | – | – | – | – | – | – | – | In vitro activity: (IC10) [1, 4]: 0.62 ng/mL; In vitro activity: IC50 [1, 4]: 1.54 ng/mL; In vitro activity: IC90 [1, 4]: 3.83 ng/mL |
| C[C@H]1[C@@H](OCc2ccc3ccccc3c2)O[C@@H]2O[C@@]3(C)CC[C@H]4[C@H](C)CC[C@@H]1[C@@]24OO3 [3(β-isomer), 10β-[(2'-naphthylmethyl)oxy]dihydroartemisinin] | 0.31 ng/mL and 0.51 ng/mL | 0.64 | 0.80 | 0.64 (≈ 1.51 nM) | 0.78 (≈ 1.84 nM) | 0.63 | 1.25 | 0.4 (≈ 0.942 nM) | 0.53 (≈ 1.25 nM) | – | – |
| CC1CCC2C(C)C(Oc3ccnc4ccccc34)OC3OC4(C)CCC1C32OO4 (stereo not drawn) [10β-(4'-Quinolinoxy)dihydroartemisinin] | – | – | – | – | – | – | – | – | – | – | antimalarial activity [3]: particularly interesting antimalarial activity |
| C[C@H]1[C@H](OCc2cccc3ccccc23)O[C@@H]2O[C@@]3(C)CC[C@H]4[C@H](C)CC[C@@H]1[C@@]24OO3 [11(α-isomer)] | 1.03 ng/mL and 1.20 ng/mL | 1.47 | 1.81 | 0.67 (≈ 1.58 nM) | 1.01 (≈ 2.38 nM) | 0.70 | 1.17 | 1.42 (≈ 3.34 nM) | 1.97 (≈ 4.64 nM) | – | – |
| C[C@H]1[C@@H](OCC(F)(F)F)O[C@@H]2O[C@@]3(C)CC[C@H]4[C@H](C)CC[C@@H]1[C@@]24OO3 [Example 1, 10β-[(2',2',2'-trifluoroethyl)oxy]dihydroartemisinin] | 0.57 ng/mL | – | – | 0.26 (≈ 0.71 nM) | – | – | – | – | – | – | In vitro activity: (IC10) [1, 4]: 0.19 ng/mL and 0.20 ng/mL; In vitro activity: IC50 [1, 4]: 0.51 ng/mL; IC50 ([2]; D6, 66 h, read-out: In vitro activity: IC50): 0.77 ng/mL (≈ 2.1 nM); IC90 ([2]; D6, 66 h, read-out: In vitro activity: IC90): 1.04 ng/mL (≈ 2.84 nM) |
| C[C@H]1[C@@H](Oc2ccnc3cc(C(F)(F)F)ccc23)O[C@@H]2O[C@@]3(C)CC[C@H]4[C@H](C)CC[C@@H]1[C@@]24OO3 [Example 2, 10β-[4'-(7'-trifluoromethylquinolinoxy)]dihydroartemisinin] | 0.55 ng/mL | – | – | 0.67 (≈ 1.4 nM) | 0.81 (≈ 1.69 nM) | – | – | 0.71 (≈ 1.48 nM) | 0.93 (≈ 1.94 nM) | 0.56 | antimalarial activity [3]: particularly interesting antimalarial activity |
| C[C@H]1[C@@H](OCc2ccccc2F)O[C@@H]2O[C@@]3(C)CC[C@H]4[C@H](C)CC[C@@H]1[C@@]24OO3 [Example 8] | 0.46 ng/mL | – | – | 0.83 (≈ 2.11 nM) | 1.08 (≈ 2.75 nM) | – | – | 0.75 (≈ 1.91 nM) | 1.22 (≈ 3.11 nM) | 0.63 | – |
| C[C@H]1[C@@H](OCc2cccc(F)c2)O[C@@H]2O[C@@]3(C)CC[C@H]4[C@H](C)CC[C@@H]1[C@@]24OO3 [Example 9] | 0.08 ng/mL | – | – | 0.45 (≈ 1.15 nM) | 0.59 (≈ 1.5 nM) | – | – | 0.36 (≈ 0.917 nM) | 1.7 (≈ 4.33 nM) | 0.35 | – |
| C[C@H]1[C@@H](OCc2ccc(F)cc2)O[C@@H]2O[C@@]3(C)CC[C@H]4[C@H](C)CC[C@@H]1[C@@]24OO3 [Example 10] | 0.20 ng/mL | – | – | 0.25 (≈ 0.637 nM) | 0.86 (≈ 2.19 nM) | – | – | 0.34 (≈ 0.866 nM) | 0.58 (≈ 1.48 nM) | 0.07 | – |
| C[C@H]1[C@@H](OCc2c3ccccc3cc3ccccc23)O[C@@H]2O[C@@]3(C)CC[C@H]4[C@H](C)CC[C@@H]1[C@@]24OO3 [Example 12] | – | – | – | 132 (≈ 277 nM) | 173 (≈ 365 nM) | 187.76 | 301.34 | – | – | – | In vitro activity: (IC10) ([2]; D6, 66 h): 102.79 ng/mL; IC50 ([2]; D6, 66 h, read-out: In vitro activity: IC50, D6 Strain (Chloroquine sensitive), 66 hours incubation, Albumax medium): 136 ng/mL (≈ 286 nM); IC90 ([2]; D6, 66 h, read-out: In vitro activity: IC90, D6 Strain (Chloroquine sensitive), 66 hours incubation, Albumax medium): 179 ng/mL (≈ 378 nM) |
| C[C@H]1[C@@H](OCc2cccc3c2ccc2ccccc23)O[C@@H]2O[C@@]3(C)CC[C@H]4[C@H](C)CC[C@@H]1[C@@]24OO3 [Example 13] | 0.44 ng/mL | – | – | 0.62 (≈ 1.31 nM) | 0.79 (≈ 1.66 nM) | – | – | 0.58 (≈ 1.22 nM) | 0.77 (≈ 1.62 nM) | 0.50 | – |
| C[C@H]1[C@@H](OCc2ccc3ccc4cccc5ccc2c3c45)O[C@@H]2O[C@@]3(C)CC[C@H]4[C@H](C)CC[C@@H]1[C@@]24OO3 [Example 14] | 29.09 ng/mL | – | – | 17.2 (≈ 34.5 nM) | 24.9 (≈ 49.9 nM) | – | – | 37.9 (≈ 76.1 nM) | 49.5 (≈ 99.2 nM) | 11.90 | – |
| C[C@H]1[C@@H](Oc2ccnc3ccccc23)O[C@@H]2O[C@@]3(C)CC[C@H]4[C@H](C)CC[C@@H]1[C@@]24OO3 [Example 15] | 0.23 ng/mL and 0.41 ng/mL | 0.61 | 0.91 | 1.24 (≈ 3.01 nM) | 6.45 (≈ 15.7 nM) | 2.03 | 9.11 | 0.43 (≈ 1.04 nM) | 0.8 (≈ 1.94 nM) | – | – |
